Like-named read-outs stand apart in the source and are kept apart here. Square brackets hold non-standard residues; d marks the D form. Peptide text beside a SMILES is read from it. * marks the point of attachment. DOTA = O=C(O)CN1CCN(CC(=O)O)CCN(CC(=O)*)CCN(CC(=O)O)CC1; AEA = NCCOCC(=O)O
Key:
[1] = Biodistribution in mouse model of myocardial infarction; type: in vivo; conditions: iv, total radioactivity, 5 h post-injection; for tissue uptake at 5 h: 10 nmol i.v., mean ± SD
Experimental: An in vivo pilot study was performed to assess the in vivo biodistribution of ACPP-B and CPP-B, 5 h post-injection, in a mouse model of myocardial infarction (MI). The conditions were similar to the earlier study with the MMP-2/9 sensitive probe ^177Lu/^125I-ACPP-2/9 [1] to facilitate comparison. We aimed to characterize the in vivo biodistribution of ACPP-B using a dual-isotope approach with ^177Lu, labeled to the polycationic domain, and ^125I, labeled to the polyanionic domain, as orthogonal radiolabels (see Supplemental Information for performed iodination procedures). […] Unfortunately, a >95% radiochemical purity could not be achieved by solid phase extraction (Figure S5), and desalting strategies to remove ^125I could not be applied due to the low molecular weight of the peptide. Therefore, re-design of the ACPP-B peptide structure, to prevent side-reactions during iodination, may enable dual-isotope studies. Hereto, the cysteine residue can be acetylated, but oxidation of the sulfur atom may still occur. Furthermore, this conversion results in a more hydrophobic residue that may impact the MT1-MMP sensitivity of the probe. Substitution of the cysteine by a serine residue will possibly be a more attractive option. Alternatively, iodine may be introduced specifically to the N-terminus via coupling of a ^125I-SHPP moiety (following a similar approach as proposed for iodination of ACPP-C (Figure 1)).
(§1) Here, a single isotope labeled probe ^177Lu-ACPP-B was employed in a pilot in vivo study.
MI was induced by permanent ligation of the left anterior descending coronary artery (LAD) using published procedures. In short, animals were subcutaneously injected with buprenorphine (0.1 mg/kg) and 30 min later anesthetized with isoflurane. Animals were intubated and ventilated with 100% oxygen with a rodent respirator. After left thoracotomy between ribs four and five, the LAD was ligated with a 6–0 prolene suture. The chest and skin were closed with 5–0 silk sutures. The animal’s temperature was continuously measured rectally and maintained at 36.5–37.5 °C during surgery. After surgery, animals were allowed to recover at 30 °C overnight.
(§2) Biodistribution experiments were performed on MI-mice (n = 5 per probe) by i.v.-injection of ^177Lu-ACPP-B (10 nmol/100 µL, ca. 4.0 MBq ^177Lu), or ^177Lu-CPP-B (10 nmol/100 µL, ca. 4.0 MBq ^177Lu). For animals injected with ^177Lu-ACPP-B, blood samples were withdrawn from the vena saphena at selected time points (3, 9, 27, and 81 min), weighed, and diluted to 1 mL with MilliQ water. The mice were anesthetized with isoflurane 5 h after i.v.-injection, subjected to 2% (w/v) Evans Blue i.v.-injection (50 mg/kg) and sacrificed 2 min later by cervical dislocation. Organs and tissues of interest were harvested and weighed. The hearts were cooled to 4 °C, cut in 1 mm slices from apex to base. Infarct, border, and remote areas were isolated based on Evans Blue staining. The ^177Lu radioactivity of all samples was measured in a γ-counter (Wizard 1480; PerkinElmer) along with standards to determine the injected dose per gram (%ID/g). The energy window was set to 155–380 keV. The average probe concentration at time 0 (C0) was calculated by fitting the blood clearance data to the 2-phase exponential decay function Y = span1 × exp(−K1 × X) + span2 × exp(−K2 × X) + Plateau using GraphPad Prism. The area under the curve (AUC) was determined and the blood half-life, the time point at which the AUC reaches 50% of the total AUC, was subsequently derived using MatLab. The average volume of distribution was calculated using the formula VD = dose/(mean body weight × C0) [L/kg].

in vivo = conditions: mouse; for tissue uptake: 10 nmol, total radioactivity
Experimental: as §1
Figure 6 Blood kinetics of ^177Lu-ACPP-B in MI-mice (n = 3). The data are mean %ID/g ± SD and fitted to the 2-phase exponential decay function Y = span1 × exp(−K1 × X) + span2 × exp(−K2 × X) + Plateau. Span1 = 2.61%ID/g, K1 = 1.99 min^−1, Span2 = 7.35%ID/g, K2 = 27.1 min^−1.
as §2

[2] = blood, MI-mice 10 days after MI, γ-counting, n = 5, read-out: Biodistribution, Blood
[3] = brain, MI-mice, n = 5, read-out: Biodistribution, Brain
[4] = fat, MI-mice, n = 5, read-out: Biodistribution, Fat
[5] = heart, infarct area, MI-mice, n = 5, read-out: Biodistribution, Heart, infarct
[6] = heart, remote myocardium, MI-mice, n = 5, read-out: Biodistribution, Heart, remote
[7] = kidney, MI-mice, n = 5, read-out: Biodistribution, Kidney
[8] = liver, MI-mice, n = 5, read-out: Biodistribution, Liver
[9] = lung, MI-mice, n = 5, read-out: Biodistribution, Lung
[10] = muscle, MI-mice, n = 5, read-out: Biodistribution, Muscle
[11] = spleen, MI-mice, n = 5, read-out: Biodistribution, Spleen
[12] = thigh bone, MI-mice, n = 5, read-out: Biodistribution, Thigh bone

Row | Compound | tissue uptake at 5 h [1, 2] [%ID/g] | tissue uptake at 5 h [1, 3] [%ID/g] | tissue uptake at 5 h [1, 4] [%ID/g] | tissue uptake at 5 h [1, 5] [%ID/g] | tissue uptake at 5 h [1, 6] [%ID/g] | tissue uptake at 5 h [1, 7] [%ID/g] | tissue uptake at 5 h [1, 8] [%ID/g] | tissue uptake at 5 h [1, 9] [%ID/g] | tissue uptake at 5 h [1, 10] [%ID/g] | tissue uptake at 5 h [1, 11] [%ID/g] | tissue uptake at 5 h [1, 12] [%ID/g] | K1 of 2-phase exponential decay fit of blood kinetics (in vivo) [min⁻¹] | K2 of 2-phase exponential decay fit of blood kinetics (in vivo) [min⁻¹] | tissue uptake (in vivo; iv, Span1 of 2-phase exponential decay fit of blood kinetics) [%ID/g] | tissue uptake (in vivo; iv, Span2 of 2-phase exponential decay fit of blood kinetics) [%ID/g] | tissue to tissue ratio at 5 h ([1]; kidney and liver, ^177Lu label, 10 nmol, MI-mice, from Table 1) | blood half-life (in vivo; iv)
1 | CC(=O)N[C@H](Cc1ccc(O)cc1)C(=O)N[C@H](CCC(=O)O)C(=O)N[C@H](CCC(=O)O)C(=O)N[C@H](CCC(=O)O)C(=O)N[C@H](CCC(=O)O)C(=O)N[C@H](CCC(=O)O)C(=O)N[C@H](CCC(=O)O)C(=O)N[C@H](CCC(=O)O)C(=O)N[C@H](CCC(=O)O)C(=O)N[C@H](CCC(=O)O)C(=O)NCCOCC(=O)N[C@@H](CS)C(=O)N[C@@H](CCCNC(=N)N)C(=O)N1CCC[C@H]1C(=O)N[C@@H](C)C(=O)N[C@@H](Cc1c[nH]cn1)C(=O)N[C@@H](CC(C)C)C(=O)N[C@@H](CCCNC(=N)N)C(=O)N[C@@H](CC(=O)O)C(=O)N[C@@H](CO)C(=O)NCC(=O)NCCOCC(=O)N[C@H](CCCNC(=N)N)C(=O)N[C@H](CCCNC(=N)N)C(=O)N[C@H](CCCNC(=N)N)C(=O)N[C@H](CCCNC(=N)N)C(=O)N[C@H](CCCNC(=N)N)C(=O)N[C@H](CCCNC(=N)N)C(=O)N[C@H](CCCNC(=N)N)C(=O)N[C@H](CCCNC(=N)N)C(=O)N[C@H](CCCNC(=N)N)C(=O)N[C@H](CCCCNC(=O)CN1CCN(CC(=O)O)CCN(CC(=O)O)CCN(CC(=O)O)CC1)C(N)=O [^177Lu-ACPP-B, metal not drawn] (Ac-[dY][dE][dE][dE][dE][dE][dE][dE][dE][dE][AEA]CRPAHLRDSG[AEA][dR][dR][dR][dR][dR][dR][dR][dR][dR][dK](DOTA)-NH2) | 0.08 ± 0.03 | 0.01 ± 0.01 | 0.43 ± 0.28 | 0.75 ± 0.15 | 0.11 ± 0.02 | 100 ± 13 | 6.76 ± 0.91 | 0.38 ± 0.09 | 0.09 ± 0.07 | 0.77 ± 0.13 | 1.92 ± 0.73 | 1.99 | 27.1 | 2.61 | 7.35 | – | –
2 | CC(=O)N[C@H](Cc1ccc(O)cc1)C(=O)N[C@H](CCC(=O)O)C(=O)N[C@H](CCC(=O)O)C(=O)N[C@H](CCC(=O)O)C(=O)N[C@H](CCC(=O)O)C(=O)N[C@H](CCC(=O)O)C(=O)N[C@H](CCC(=O)O)C(=O)N[C@H](CCC(=O)O)C(=O)N[C@H](CCC(=O)O)C(=O)N[C@H](CCC(=O)O)C(=O)NCCOCC(=O)N[C@@H](CS)C(=O)N[C@@H](CCCNC(=N)N)C(=O)N1CCC[C@H]1C(=O)N[C@@H](C)C(=O)N[C@@H](Cc1c[nH]cn1)C(=O)N[C@@H](CC(C)C)C(=O)N[C@@H](CCCNC(=N)N)C(=O)N[C@@H](CC(=O)O)C(=O)N[C@@H](CO)C(=O)NCC(=O)NCCOCC(=O)N[C@H](CCCNC(=N)N)C(=O)N[C@H](CCCNC(=N)N)C(=O)N[C@H](CCCNC(=N)N)C(=O)N[C@H](CCCNC(=N)N)C(=O)N[C@H](CCCNC(=N)N)C(=O)N[C@H](CCCNC(=N)N)C(=O)N[C@H](CCCNC(=N)N)C(=O)N[C@H](CCCNC(=N)N)C(=O)N[C@H](CCCNC(=N)N)C(=O)N[C@H](CCCCNC(=O)CN1CCN(CC(=O)O)CCN(CC(=O)O)CCN(CC(=O)O)CC1)C(N)=O [ACPP-B, Ac-y-e9-X-CRPAHLRDSG-X-r9-k(DOTA)-NH2] (Ac-[dY][dE][dE][dE][dE][dE][dE][dE][dE][dE][AEA]CRPAHLRDSG[AEA][dR][dR][dR][dR][dR][dR][dR][dR][dR][dK](DOTA)-NH2) | – | – | – | – | – | – | – | – | – | – | – | – | – | – | – | 14.9 | ~ 24 min
3 | CC(C)C[C@H](N)C(=O)N[C@@H](CCCNC(=N)N)C(=O)N[C@@H](CC(=O)O)C(=O)N[C@@H](CO)C(=O)NCC(=O)NCCOCC(=O)N[C@H](CCCNC(=N)N)C(=O)N[C@H](CCCNC(=N)N)C(=O)N[C@H](CCCNC(=N)N)C(=O)N[C@H](CCCNC(=N)N)C(=O)N[C@H](CCCNC(=N)N)C(=O)N[C@H](CCCNC(=N)N)C(=O)N[C@H](CCCNC(=N)N)C(=O)N[C@H](CCCNC(=N)N)C(=O)N[C@H](CCCNC(=N)N)C(=O)N[C@H](CCCCNC(=O)CN1CCN(CC(=O)O)CCN(CC(=O)O)CCN(CC(=O)O)CC1)C(N)=O [^177Lu-CPP-B, metal not drawn] (H-LRDSG[AEA][dR][dR][dR][dR][dR][dR][dR][dR][dR][dK](DOTA)-NH2) | 0.14 ± 0.06 | 0.01 ± 0.01 | 0.16 ± 0.07 | 1.69 ± 0.5 | 0.32 ± 0.11 | 10.1 ± 1.61 | 33.2 ± 3.98 | 0.67 ± 0.25 | 0.1 ± 0.02 | 4.17 ± 0.82 | 2.61 ± 0.25 | – | – | – | – | – | –

Source: PMC6332093, “Development of Radiolabeled Membrane Type-1 Matrix Metalloproteinase Activatable Cell Penetrating Peptide Imaging Probes” (Molecules, 2015)
